From patent US20080181866A1, “Amido Anti-viral Compounds” (Genelabs Technologies, Inc., priority 2006, published 2008)

Each compound was assayed on HCV replication (assay: HCV replicon assay (luciferase) in ET (Huh-lucubineo-ET) cell line). Conditions: Hepatitis C virus, tested at 5 μM; ET replicon cells; luciferase activity measured 48-72 hours later; relative to no compound control.
Type: cell-based
Outline: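 Huh-lucubineo-ET cells stably carry a subgenomic replicon with a firefly luciferase–ubiquitin–neo fusion and adaptive NS3-5B mutations; they were seeded 24 h before compound addition (0.1 nM–50 μM, 0.5% DMSO). Luciferase was read 48–72 h later as % inhibition versus no-compound control, with parallel WST-1 cytotoxicity. EC50 and TC50 came from 10-point 2-fold dilutions fitted to a Hill equation.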

Structure (SMILES)	inhibition at 5 µM [%]
O=C(NC1CC1)c1ccc(-c2csc(NC(=O)[C@@H]3Cc4ccccc4N3C(=O)OCc3ccccc3)n2)cc1 [Compound 7039, (S)-2-[4-(4-Cyclopropylcarbamoyl-phenyl)-thiazol-2-ylcarbamoyl]-2,3-dihydro-indole-1-carboxylic acid benzyl ester]	100
C=C1C[C@@H](C(=O)Nc2nc(-c3ccc(C(=O)NC4CC4)cc3)cs2)N(C(=O)OC(C)(C)C)C1 [Compound 7040, (S)-2-[4-(4-Cyclopropylcarbamoyl-phenyl)-thiazol-2-ylcarbamoyl]-4-methylene-pyrrolidine-1-carboxylic acid tert-butyl ester]	89.9
CC(C)(C)NC(=O)c1ccc(-c2csc(NC(=O)[C@@H]3CSC(c4ccncc4)N3C(=O)OCc3ccccc3)n2)cc1 (stereo partly shown) [Compound 7041, 4-[4-(4-tert-Butyl-carbamoyl-phenyl)-thiazol-2-ylcarbamoyl]-2-pyridin-4-yl-thiazolidine-3-carboxylic acid benzyl ester]	100
O=C(NC1CC1)c1ccc(-c2csc(NC(=O)[C@@H]3C[C@@H]4CCCC[C@@H]4N3C(=O)OCc3ccccc3)n2)cc1 [Compound 7043, (2S,3aS,7aS)-2-[4-(4-Cyclopropylcarbamoyl-phenyl)-thiazol-2-ylcarbamoyl]-octahydro-indole-1-carboxylic acid benzyl ester]	100
O=C(NC1CC1)c1ccc(-c2csc(NC(=O)[C@@H]3CSC(c4ccccc4)N3C(=O)OCc3ccccc3)n2)cc1 (stereo partly drawn) [Compound 7044, (R)-4-[4-(4-Cyclopropylcarbamoyl-phenyl)-thiazol-2-ylcarbamoyl]-2-phenyl-thiazolidine-3-carboxylic acid benzyl ester]	98
O=C(NC1CC1)c1ccc(-c2csc(NC(=O)[C@@H]3CC[C@H](c4ccc(CN5CCOCC5)cc4)N3C(=O)OCc3ccccc3)n2)cc1 [Compound 7045, (2S,5R)-2-[4-(4-Cyclopropylcarbamoyl-phenyl)-thiazol-2-ylcarbamoyl]-5-(4-morpholin-4-ylmethyl-phenyl)-pyrrolidine-1-carboxylic acid benzyl ester]	100
O=C(NC1CC1)c1ccc(-c2csc(NC(=O)[C@@H]3COC(c4ccccc4)N3C(=O)OCc3ccccc3)n2)cc1 (stereo partly drawn) [Compound 7046, (S)-4-[4-(4-Cyclopropylcarbamoyl-phenyl)-thiazol-2-ylcarbamoyl]-2-phenyl-oxazolidine-3-carboxylic acid benzyl ester]	99.1
O=C(NC1CC1)c1ccc(-c2csc(NC(=O)[C@@H]3CSC(c4cc[n+]([O-])cc4)N3C(=O)OCc3ccccc3)n2)cc1 (stereo partly drawn) [Compound 7050, (R)-4-[4-(4-Cyclopropylcarbamoyl-phenyl)-thiazol-2-ylcarbamoyl]-2-(1-oxy-pyridin-4-yl)-thiazolidine-3-carboxylic acid benzyl ester]	100
O=C(NC1CC1)c1ccc(-c2csc(NC(=O)[C@@H]3CC[C@H](c4ccccc4)N3C(=O)OCc3ccccc3)n2)cc1 [Compound 7052, (2S,5R)-2-[4-(4-Cyclopropylcarbamoyl-phenyl)-thiazol-2-ylcarbamoyl]-5-phenyl-pyrrolidine-1-carboxylic acid benzyl ester]	98.9
O=C(Nc1nc(-c2ccccc2)cs1)[C@@H]1CS[C@H](c2cccnc2)N1C(=O)OCc1ccccc1 [Compound 7058, (2R,4R)-4-(4-Phenyl-thiazol-2-ylcarbamoyl)-2-pyridin-3-yl-thiazolidine-3-carboxylic acid benzyl ester]	99.9
O=C(Cc1ccc(NC(=O)[C@@H]2CSC(c3ccncc3)N2C(=O)OCc2ccccc2)cc1)NC1CC1 (stereo partly shown) [Compound 7068, 4-(4-Cyclopropylcarbamoylmethyl-phenylcarbamoyl)-2-pyridin-4-yl-thiazolidine-3-carboxylic acid benzyl ester]	6
O=C(NC1CC1)c1ccc(-c2csc(NC(=O)[C@@H]3CSC(C4CCOCC4)N3C(=O)[C@@H]3CCCO3)n2)cc1 (stereo partly shown) [Compound 7069, 3-(Tetrahydro-furan-2-carbonyl)-2-(tetrahydro-pyran-4-yl)-thiazolidine-4-carboxylic acid [4-(4-cyclopropylcarbamoyl-phenyl)-thiazol-2-yl]-amide]	98.8
CC(C)(C)C(=O)N1C(C2CCOCC2)SC[C@H]1C(=O)Nc1nc(-c2ccc(C(=O)NC3CC3)cc2)cs1 (stereo partly shown) [Compound 7070, 3-(2,2-Dimethyl-propionyl)-2-(tetrahydro-pyran-4-yl)-thiazolidine-4-carboxylic acid [4-(4-cyclopropylcarbamoyl-phenyl)-thiazol-2-yl]-amide]	96.1
O=C(NC1CC1)c1ccc(-c2csc(NC(=O)[C@@H]3CSC(CCCCC(=O)N4CCOCC4)N3C(=O)OCc3ccccc3)n2)cc1 (stereo partly shown) [Compound 7071, 4-[4-(4-Cyclopropylcarbamoyl-phenyl)-thiazol-2-ylcarbamoyl]-2-(5-morpholin-4-yl-5-oxo-pentyl)-thiazolidine-3-carboxylic acid benzyl ester]	100
O=C(Cc1cccc(NC(=O)[C@@H]2CSC(c3ccncc3)N2C(=O)OCc2ccccc2)c1)Nc1ccccc1 (stereo partly shown) [Compound 7072, 4-(3-Phenylcarbamoylmethyl-phenylcarbamoyl)-2-pyridin-4-yl-thiazolidine-3-carboxylic acid benzyl ester]	80.8
O=C(NC1CC1)c1ccc(-c2csc(NC(=O)[C@@H]3CSC(C4CCOCC4)N3C(=O)[C@H]3CCCO3)n2)cc1 (stereo partly shown) [Compound 7074, 3-(Tetrahydro-furan-2-carbonyl)-2-(tetrahydro-pyran-4-yl)-thiazolidine-4-carboxylic acid [4-(4-cyclopropylcarbamoyl-phenyl)-thiazol-2-yl]-amide]	99
O=C(NCc1ccccc1)c1ccc(NC(=O)[C@@H]2CSC(c3ccncc3)N2C(=O)OCc2ccccc2)cc1 (stereo partly shown) [Compound 7075, 4-(4-Benzylcarbamoyl-phenylcarbamoyl)-2-pyridin-4-yl-thiazolidine-3-carboxylic acid benzyl ester]	21.3
O=C(Nc1ccccc1)c1ccc(NC(=O)[C@@H]2CSC(c3ccncc3)N2C(=O)OCc2ccccc2)cc1 (stereo partly shown) [Compound 7076, 4-(4-Phenylcarbamoyl-phenylcarbamoyl)-2-pyridin-4-yl-thiazolidine-3-carboxylic acid benzyl ester]	3.9
CC(C)(C)OC(=O)NCc1ccc(NC(=O)[C@@H]2CSC(c3ccncc3)N2C(=O)OCc2ccccc2)cc1 (stereo partly shown) [Compound 7078, 4-[4-(tert-Butoxycarbonylamino-methyl)-phenylcarbamoyl]-2-pyridin-4-yl-thiazolidine-3-carboxylic acid benzyl ester]	35.6
Cc1cccc2[nH]c(Cc3ccc(NC(=O)[C@@H]4CSC(c5ccncc5)N4C(=O)OCc4ccccc4)cc3)nc12 (stereo partly shown) [Compound 7084, 4-[4-(4-Methyl-1H-benzoimidazol-2-ylmethyl)-phenylcarbamoyl]-2-pyridin-4-yl-thiazolidine-3-carboxylic acid benzyl ester]	14.2
O=C(NC1CC1)c1ccc(-c2csc(NC(=O)[C@@H]3CSC(C4CCOCC4)N3C(=O)C3CC3)n2)cc1 (stereo partly shown) [Compound 7085, 3-Cyclopropanecarbonyl-2-(tetrahydro-pyran-4-yl)-thiazolidine-4-carboxylic acid [4-(4-cyclopropylcarbamoyl-phenyl)-thiazol-2-yl]-amide]	99.6
O=C(NC1CC1)c1ccc(-c2csc(NC(=O)[C@@H]3CSC(c4ccc(CN5CCOCC5)cc4)N3C(=O)OCc3ccccc3)n2)cc1 (stereo partly shown) [Compound 7087, 4-[4-(4-Cyclopropylcarbamoyl-phenyl)-thiazol-2-ylcarbamoyl]-2-(4-morpholin-4-ylmethyl-phenyl)-thiazolidine-3-carboxylic acid benzyl ester]	99.6
CC(C)(C)OC(=O)N1C(C2CCOCC2)SC[C@H]1C(=O)Nc1nc(-c2ccc(C(=O)NC3CC3)cc2)cs1 (stereo partly shown) [Compound 7090, 4-[4-(4-Cyclopropylcarbamoyl-phenyl)-thiazol-2-ylcarbamoyl]-2-(tetrahydropyran-4-yl)-thiazolidine-3-carboxylic acid tert-butyl ester]	99.7
Cn1ccnc1C(=O)N1C(C2CCOCC2)SC[C@H]1C(=O)Nc1nc(-c2ccc(C(=O)NC3CC3)cc2)cs1 (stereo partly shown) [Compound 7092, 3-(1-Methyl-1H-imidazole-2-carbonyl)-2-(tetrahydro-pyran-4-yl)-thiazolidine-4-carboxylic acid [4-(4-cyclopropylcarbamoyl-phenyl)-thiazol-2-yl]-amide]	89.4
O=C(NC1CC1)c1ccc(-c2csc(NC(=O)[C@@H]3CSC4(CCCCC4)N3C(=O)OCc3ccccc3)n2)cc1 [Compound 7093, 3-[4-(4-Cyclopropylcarbamoyl-phenyl)-thiazol-2-ylcarbamoyl]-1-thia-4-aza-spiro[4.5]decane-4-carboxylic acid benzyl ester]	100
O=C(Nc1nc(-c2ccccc2)cs1)[C@@H]1CSC2(CCOCC2)N1C(=O)OCc1ccccc1 [Compound 7094, 3-(4-Phenyl-thiazol-2-ylcarbamoyl)-8-oxa-1-thia-4-aza-spiro[4.5]decane-4-carboxylic acid benzyl ester]	88
CNC(=O)CCCCC1SC[C@@H](C(=O)Nc2nc(-c3ccc(C(=O)NC4CC4)cc3)cs2)N1C(=O)OCc1ccccc1 (stereo partly shown) [Compound 7099, 4-[4-(4-Cyclopropylcarbamoyl-phenyl)-thiazol-2-ylcarbamoyl]-2-(4-methylcarbamoyl-butyl)-thiazolidine-3-carboxylic acid benzyl ester]	100
O=C(NCc1ccccc1)c1cccc(NC(=O)[C@@H]2CSC(c3ccncc3)N2C(=O)OCc2ccccc2)c1 (stereo partly shown) [Compound 7100, 4-(3-Benzylcarbamoyl-phenylcarbamoyl)-2-pyridin-4-yl-thiazolidine-3-carboxylic acid benzyl ester]	80.1
